Patent publication US7879876B2, “Sulfonamide derivatives and use thereof for the modulation of metalloproteinases” (Merck Serono SA, priority 2005, dated 2011)

What was measured:
Assay type in all cases: biochemical
[1] = biological target: MMP-14 (Homo sapiens, UniProt P50281); experiment: MMP-14 enzyme inhibition assay (coumarin-labelled peptide substrate); settings: read-out: percentage inhibition MMP14
How it was run: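 Recombinant human enzyme, APMA-activated if necessary, was incubated with McaPLGLDpaAR substrate and compound (10 concentrations in duplicate, 100 μM to 5.1 nM) in Tris-HCl pH 7.6 with NaCl, CaCl2 and Brij 35 for 2 h at 37 °C. Fluorescence was read at 320/405 nm, and IC50 was taken from a four-parameter fit.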

[2] = biological target: 92 kDa gelatinase (MMP-9) (Homo sapiens, UniProt P14780); experiment: MMP-9 enzyme inhibition assay (coumarin-labeled peptide substrate); settings: for IC50: read-out: IC50 MMP9; for inhibition at 5 µM: read-out: percentage inhibition MMP9
Sequence of 92 kDa gelatinase (MMP-9) (P14780 107-707 limits assumed): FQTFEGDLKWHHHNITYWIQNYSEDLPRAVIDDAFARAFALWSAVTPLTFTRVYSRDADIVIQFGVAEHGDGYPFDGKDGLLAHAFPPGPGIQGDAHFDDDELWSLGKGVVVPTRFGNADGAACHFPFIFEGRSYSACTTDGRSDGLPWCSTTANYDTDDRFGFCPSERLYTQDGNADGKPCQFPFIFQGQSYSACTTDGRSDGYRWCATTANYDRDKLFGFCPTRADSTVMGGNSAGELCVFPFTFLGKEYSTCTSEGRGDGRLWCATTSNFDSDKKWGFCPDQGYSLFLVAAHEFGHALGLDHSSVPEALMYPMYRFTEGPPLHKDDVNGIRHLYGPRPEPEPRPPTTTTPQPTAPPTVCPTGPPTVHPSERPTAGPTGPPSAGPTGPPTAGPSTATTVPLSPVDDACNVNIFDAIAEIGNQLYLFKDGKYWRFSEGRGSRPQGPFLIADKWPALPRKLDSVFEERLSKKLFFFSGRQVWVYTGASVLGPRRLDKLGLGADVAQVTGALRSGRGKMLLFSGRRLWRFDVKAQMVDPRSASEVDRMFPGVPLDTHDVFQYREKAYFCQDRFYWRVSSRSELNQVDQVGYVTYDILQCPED
How it was run: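 Recombinant human MMP-9 (APMA-activated if needed) was assayed in 100 mM Tris-HCl pH 7.6, 100 mM NaCl, 10 mM CaCl2, 0.05% Brij 35, with McaPLGLDpaAR substrate at 37° C. for 2 h. Fluorescence was read at ex 320/em 405 nm over ten 3-fold compound doses (100 μM–5.1 nM) in duplicate. IC50 came from a four-parameter fit.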

[3] = biological target: T1, gelatinase A (MMP-2) (Homo sapiens, UniProt P08253); experiment: MMP-2 enzyme inhibition assay (coumarin-labelled peptide substrate); settings: read-out: IC50 MMP2
T1 sequence (P08253 110-660): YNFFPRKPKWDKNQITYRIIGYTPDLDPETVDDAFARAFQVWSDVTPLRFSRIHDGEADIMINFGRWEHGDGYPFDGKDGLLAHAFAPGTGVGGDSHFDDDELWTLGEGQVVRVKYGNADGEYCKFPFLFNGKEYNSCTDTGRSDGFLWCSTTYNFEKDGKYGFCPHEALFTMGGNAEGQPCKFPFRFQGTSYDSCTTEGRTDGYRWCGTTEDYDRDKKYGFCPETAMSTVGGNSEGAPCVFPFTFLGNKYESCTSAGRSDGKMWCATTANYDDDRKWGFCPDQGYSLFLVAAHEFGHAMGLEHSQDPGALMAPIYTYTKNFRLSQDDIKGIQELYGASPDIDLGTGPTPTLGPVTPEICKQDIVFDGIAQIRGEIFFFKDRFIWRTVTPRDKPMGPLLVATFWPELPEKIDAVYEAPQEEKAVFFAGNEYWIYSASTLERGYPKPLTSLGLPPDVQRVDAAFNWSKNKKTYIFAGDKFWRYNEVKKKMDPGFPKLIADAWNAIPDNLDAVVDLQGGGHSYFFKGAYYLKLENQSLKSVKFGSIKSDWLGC
How it was run: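 Recombinant human MMP-2, APMA-activated if necessary, run as for the MMP-9 protocol: McaPLGLDpaAR substrate (8 μM working dilution) in 100 mM Tris-HCl pH 7.6, 100 mM NaCl, 10 mM CaCl2, 0.05% Brij 35; ten 3-fold concentrations (100 μM–5.1 nM) in duplicate, 2 h at 37° C. Fluorescence ex 320/em 405 nm, unstopped; IC50 from four-parameter fit.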

[4] = biological target: metalloelastase (MMP-12) (Homo sapiens, UniProt P39900); experiment: MMP-12 enzyme inhibition assay (coumarin-labelled peptide substrate); settings: read-out: IC50 MMP12
Sequence of metalloelastase (MMP-12) (P39900 106-470): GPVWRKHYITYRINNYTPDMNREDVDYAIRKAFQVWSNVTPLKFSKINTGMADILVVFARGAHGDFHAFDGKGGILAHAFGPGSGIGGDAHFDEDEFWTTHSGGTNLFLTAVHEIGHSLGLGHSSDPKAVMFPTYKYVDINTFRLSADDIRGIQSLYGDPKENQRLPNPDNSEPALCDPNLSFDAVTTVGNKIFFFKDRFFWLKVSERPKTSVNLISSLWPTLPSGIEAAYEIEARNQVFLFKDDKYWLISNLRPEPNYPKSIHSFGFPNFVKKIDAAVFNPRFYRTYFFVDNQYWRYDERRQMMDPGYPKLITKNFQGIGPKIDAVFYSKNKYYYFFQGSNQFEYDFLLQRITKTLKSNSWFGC
How it was run: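 Recombinant human MMP-12 assayed per the MMP-9 protocol: Tris-HCl pH 7.6 buffer with NaCl, CaCl2, Brij 35; McaPLGLDpaAR substrate, compounds 100 μM–5.1 nM in duplicate, 2 h at 37° C. Fluorescence read at 405 nm (320 nm excitation) without stopping; IC50 from four-parameter fit.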

| SMILES | inhibition at 0.1 µM [1] | inhibition at 5 µM [1] | IC50 [2] | IC50 [3] | IC50 [4] | inhibition at 5 µM [2] |
| --- | --- | --- | --- | --- | --- | --- |
| COc1cc2c(cc1OC)CN(S(=O)(=O)CC([C@H](O)CO)N(O)C=O)CC2 (stereo partly drawn) [Example 24, N-((2S)-1-{[(6,7-dimethoxy-3,4-dihydroisoquinolin-2(1H)-yl)sulfonyl]methyl}-2,3-dihydroxypropyl)-N-hydroxyformamide] |  | 0% | > 5000 nM | > 5000 nM | 300 nM |  |
| O=CN(O)C(CS(=O)(=O)N1CCc2cc(C(F)(F)F)ccc2C1)C1CCCC1 (centres unmarked) [Example 25, N-(1-cyclopentyl-2-{[6-(trifluoromethyl)-3,4-dihydro-isoquinolin-2(1H)-yl]sulfonyl}ethyl)-N-hydroxyformamide] | 0% | 73% | > 5000 nM | 78 nM | 6 nM |  |
| CC(C)(C)CC(CS(=O)(=O)N1Cc2ccc(F)cc2C1)N(O)C=O (centres unmarked) [Example 26, N-(1-{[(5-fluoro-1,3-dihydro-2H-isoindol-2-yl)sulfonyl]methyl}-3,3-dimethylbutyl)-N-hydroxyformamide] |  | 82% |  | 60 nM | 10 nM | 62% |
| O=CN(O)[C@H](CS(=O)(=O)N1CCc2ccc(C(F)(F)F)cc2C1)[C@H]1CCCO1 [Example 27, N-hydroxy-N-((1S)-1-[(2R)-tetrahydrofuran-2-yl]-2-{[7-(trifluoromethyl)-3,4-dihydroisoquinolin-2(1H)-yl]sulfonyl}ethyl)formamide] |  | 41% |  | 58 nM | 6.9 nM | 13% |
| O=CN(O)[C@H](CS(=O)(=O)N1Cc2ccc(F)cc2C1)[C@H]1CCCO1 [Example 29, N-{(1S)-2-[(5-fluoro-1,3-dihydro-2H-isoindol-2-yl)-sulfonyl]-1-[(2R)-tetrahydrofuran-2-yl]ethyl}-N-hydroxyformamide] |  | 78% |  | 150 nM | 14 nM | 40% |
| CCC#CCC(C)(C)C(CS(=O)(=O)N1CCc2cc(C(F)(F)F)ccc2C1)N(O)C=O (centres unmarked) [Example 30, N-[2,2-dimethyl-1-({[6-(trifluoromethyl)-3,4-dihydro-isoquinolin-2(1H)-yl]sulfonyl}methyl)hept-4-yn-1-yl]-N-hydroxyformamide] |  | 38% |  | 880 nM | 32 nM | 3% |
| CC(C)(Cc1ccccc1)C(CS(=O)(=O)N1CCc2cc(C(F)(F)F)ccc2C1)N(O)C=O (centres unmarked) [Example 31, N-[2,2-dimethyl-3-phenyl-1-({[6-(trifluoromethyl)-3,4-dihydroisoquinolin-2(1H)-yl]sulfonyl}methyl)propyl]-N-hydroxyformamide] |  | 19% |  | 939 nM | 40 nM | 3% |
| O=CN(O)[C@@H](CS(=O)(=O)N1CCc2ccc(C(F)(F)F)cc2C1)[C@H]1CCCO1 [Example 32, N-hydroxy-N-((1R)-1-[(2R)-tetrahydrofuran-2-yl]-2-{[7-(trifluoromethyl)-3,4-dihydroisoquinolin-2(1H)-yl]sulfonyl}ethyl)formamide] |  | 14% |  | > 5000 nM | 168 nM | 4% |
| COc1ccc2c(c1)CN(S(=O)(=O)CC(CCC1CCCO1)N(O)C=O)CC2 (centres unmarked) [Example 33, N-hydroxy-N-[1-{[(7-methoxy-3,4-dihydroisoquinolin-2(1H)-yl)sulfonyl]methyl}-3-(tetrahydrofuran-2-yl)propyl]formamide] |  | 30% |  | 151 nM | 27 nM | 15% |
| CCC(CC)C(CS(=O)(=O)N1CCc2cc(C(C)C)ccc2C1)N(O)C=O (centres unmarked) [Example 35, N-(2-ethyl-1-{[(6-isopropyl-3,4-dihydroisoquinolin-2(1H)-yl)sulfonyl]methyl}butyl)-N-hydroxyformamide] | 7% | 85% |  | 62 nM | 4.2 nM | 43% |
| CCC(CC)C(CS(=O)(=O)N1CCc2ccc(OC)cc2C1)N(O)C=O (centres unmarked) [Example 38, N-(2-ethyl-1-{[(7-methoxy-3,4-dihydroisoquinolin-2(1H)-yl)sulfonyl]methyl}butyl)-N-hydroxyformamide] |  | 49% |  | 71 nM | 7.2 nM | 50% |
| CCCOc1ccc2c(c1)CN(S(=O)(=O)CC(CC(C)(C)C)N(O)C=O)CC2 (centres unmarked) [Example 40, N-(3,3-dimethyl-1-{[(7-propoxy-3,4-dihydroisoquinolin-2(1H)-yl)sulfonyl]methyl}butyl)-N-hydroxyformamide] |  | 54% |  | 77 nM | 15 nM | 11% |
| CC(C)(C)CC(CS(=O)(=O)N1CCc2ccc(Cl)cc2C1)N(O)C=O (centres unmarked) [Example 41, N-(1-{[(7-chloro-3,4-dihydroisoquinolin-2(1H)-yl)sulfonyl]-methyl}-3,3-dimethylbutyl)-N-hydroxyformamide] | 5% | 74% |  | 87 nM | 11 nM | 14% |

These reach a lower IC50 [3]. Values come first.

| inhibition at 0.1 µM [1] | inhibition at 5 µM [1] | IC50 [2] | IC50 [3] | IC50 [4] | inhibition at 5 µM [2] | SMILES |
| --- | --- | --- | --- | --- | --- | --- |
| 7% | 72% | > 5000 nM | 27 nM | 28 nM |  | O=CN(O)[C@H](CS(=O)(=O)N1CCc2ccc(Cl)cc2C1)[C@H]1CCCO1 [Example 23, N-{(1S)-2-[(7-chloro-3,4-dihydroisoquinolin-2(1H)-yl)sulfonyl]-1-[(2R)-tetrahydrofuran-2-yl]ethyl}-N-hydroxyformamide] |
|  | 62% |  | 45 nM | 3.9 nM | 21% | CC1(C)OC[C@H](C(CS(=O)(=O)N2CCc3ccc(C(F)(F)F)cc3C2)N(O)C=O)O1 (stereo partly drawn) [Example 28, N-(1-[(4S)-2,2-dimethyl-1,3-dioxolan-4-yl]-2-{[7-(trifluoro-methyl)-3,4-dihydroisoquinolin-2(1H)-yl]sulfonyl}ethyl)-N-hydroxyformamide] |
| 3% | 82% |  | 35 nM | 6 nM | 42% | CCC(CC)C(CS(=O)(=O)N1CCc2cc(Cl)c(Cl)cc2C1)N(O)C=O (centres unmarked) [Example 34, N-(1-{[(6,7-dichloro-3,4-dihydroisoquinolin-2(1H)-yl)-sulfonyl]methyl}-2-ethylbutyl)-N-hydroxyformamide] |
| 3% | 75% |  | 41 nM | 5.7 nM | 37% | CCC(CC)C(CS(=O)(=O)N1CCc2ccc(Br)cc2C1)N(O)C=O (centres unmarked) [Example 36, N-(1-{[(7-bromo-3,4-dihydroisoquinolin-2(1H)-yl)sulfonyl]-methyl}-2-ethylbutyl)-N-hydroxyformamide] |
| 8% | 83% |  | 35 nM | 4.2 nM | 58% | CCC(CC)C(CS(=O)(=O)N1CCc2cc(C(F)(F)F)ccc2C1)N(O)C=O (centres unmarked) [Example 37, N-[2-ethyl-1-({[6-(trifluoromethyl)-3,4-dihydroisoquinolin-2(1H)-yl]sulfonyl}methyl)butyl]-N-hydroxyformamide] |
| 10% | 87% |  | 16 nM | 4.1 nM | 47% | CC(C)C(CS(=O)(=O)N1CCc2cc(Cl)c(Cl)cc2C1)N(O)C=O (centres unmarked) [Example 39, N-(1-{[(6,7-dichloro-3,4-dihydroisoquinolin-2(1H)-yl)-sulfonyl]methyl}-2-methylpropyl)-N-hydroxyformamide] |
| 15% | 88% |  | 31 nM | 4.4 nM | 35% | CC(C)(C)CC(CS(=O)(=O)N1CCc2cc(Cl)c(Cl)cc2C1)N(O)C=O (centres unmarked) [Example 42, N-(1-{[(6,7-dichloro-3,4-dihydroisoquinolin-2(1H)-yl)-sulfonyl]methyl}-3,3-dimethylbutyl)-N-hydroxyformamide] |
